Test results reported in article PMC8241176, “Preliminary study on fabrication, characterization and synergistic anti-lung cancer effects of self-assembled micelles of covalently conjugated celastrol–polyethylene glycol–ginsenoside Rh2” (Drug Delivery, 2017).

System: A549 cells
Test: Antiproliferative effect by MTT assay
Assay type: cell-based, human
Settings: 48 h, G Rh2 6.4 μg/mL
Description: The human NSCLC cell line, A549, was cultured in RPMI 1640 medium containing 10% FBS at 37 °C and 5% CO2 in an incubator with saturated humidity. The medium was replaced every 2 days and the cells were passaged at the split ratio of 1:8 every 5–7 days. Cells grown to the logarithmic growth phase were harvested for further experiments.
The A549 cells were seeded in a 96-well plate at 5 × 10^3 cells/well and incubated for 24 h. The medium was then discarded and each well received 100 μL of different concentrations of CG-M, CG-Mblank, celastrol + G Rh2, celastrol and G Rh2. After 48 h of incubation, 100 μL of 0.5 mg/mL MTT in phosphate-buffered saline (PBS) was added to each well, followed by 4 h of incubation in the dark. […] The plate was shaken at low speed for 3 min, and the absorbance at 570 nm was measured using a microplate reader to calculate cell viability. Cell viability (%) = Absorbance of the drug treatment group (Adrug)/Absorbance of the control group (Acontrol) × 100. The IC50 was calculated by GraphPad prism 6.0 software (GraphPad Software Inc., San Diego, CA). The combined index (CI) was calculated with the following formula: CI = IC50 of celastrol in combination group/IC50 of celastrol + IC50 of G Rh2 in combination group/IC50 of G Rh2 (Qu et al., [2017]; Wu et al., [2017]), which represents a synergistic antitumor effect if the value is less than 1.

`CC(C)=CCC[C@](C)(O)[C@H]1CC[C@]2(C)[C@@H]1[C@H](O)C[C@@H]1[C@@]3(C)CC[C@H](O[C@@H]4O[C@H](CO)[C@@H](O)[C@H](O)[C@H]4O)C(C)(C)[C@@H]3CC[C@]12C` [G Rh2, ginsenoside Rh2] was tested, and the “survival rate of cells” value was 67.5%.
